Like-named read-outs stand apart in the source and are kept apart here.
Columns and labels:
Water solubility = assay type: physicochemical; conditions: fumarate salt vs free base
[1] = test system: primary AML cell line AML1; assay: Anti-leukemic activity, Annexin V/7-AAD flow cytometry; assay type: cell-based, human; conditions: 24 h of drug exposure, read-out: AML#1 (EC50)
Protocol: (§1) The newly synthesized triazole derivatives of melampomagnolide B were screened for anti-leukemic activity against M9 ENL1 and primary AML cell lines; the latter were obtained with informed consent from human patients. Evaluations were performed after 24 h of drug exposure using flow cytometric analysis by labeling with Annexin V and 7-aminoactinomycin D (7-AAD) to delineate apoptotic cell populations. In all experiments PTL was included as a reference control.

[2] = test system: primary AML cell line AML2; assay: as above; assay type: cell-based, human; conditions: 24 h of drug exposure, read-out: AML#2 (EC50)
Protocol: as §1

M9 ENL1 cell line = assay: as above; assay type: cell-based
Protocol: as §1

[3] = 24 h of drug exposure, read-out: M9ENL1 (EC50)
[4] = M9-ENL1, 24 h, 24 h of drug exposure, read-out: M9ENL1 (EC50)

Compound | EC50 (M9 ENL1 cell line; [3]) [nM] | EC50 ([1]; Homo sapiens, AML1, 24 h) [nM] | EC50 (M9 ENL1 cell line; [4]) [nM] | also measured
CN(C)CC1C(=O)O[C@H]2[C@H]1CC/C(Cn1cc(-c3cc(C(F)(F)F)cc(C(F)(F)F)c3)nn1)=C\CC[C@@]1(C)O[C@@H]21 (stereo partly drawn) [JVM 4-29C] | 1700 | – | – | water solubility compared with free base form (Water solubility): more water soluble than the free base form; EC50 [1]: 1000 nM; EC50 [2]: 2900 nM
C=C1C(=O)O[C@@H]2[C@H]3O[C@]3(C)CC/C=C(\CO)CC[C@@H]12 [MMB, Melampomagnolide B] | 16000 | – | – | EC50 [1]: 20500 nM; EC50 [2]: 24300 nM
C/C1=C\CC[C@@]2(C)O[C@@H]2[C@H]2OC(=O)[C@H](CN(C)C)[C@@H]2CC1 [DMAPT, reference compound] | 6000 | – | – | EC50 [1]: 14700 nM; EC50 [2]: 11300 nM
CN(C)CC1C(=O)O[C@H]2[C@H]1CC/C(Cn1cc(-c3cc(C(F)(F)F)cc(C(F)(F)F)c3)nn1)=C\CC[C@@]1(C)O[C@@H]21 (stereo partly drawn) [JVM 4-29B] | – | 1100 | 1900 | EC50 ([2]; Homo sapiens, 24 h): 2300 nM

The next lines start with results.

EC50 (M9 ENL1 cell line; [3]) [nM] | EC50 ([1]; Homo sapiens, AML1, 24 h) [nM] | EC50 (M9 ENL1 cell line; [4]) [nM] | Compound | also measured
11000 | – | – | C=C1C(=O)O[C@H]2[C@H]1CC/C(Cn1cc(COC(=O)c3ccccc3)nn1)=C\CC[C@@]1(C)O[C@@H]21 [JVM 3-76] | –
– | 2400 | 1500 | C=C1C(=O)O[C@H]2[C@H]1CC/C(Cn1cc(-c3cc(F)cc(F)c3)nn1)=C\CC[C@@]1(C)O[C@@H]21 [JVM 4-48, (1aR,7aS,10aS,10bS,E)-5-((4-(3,5-Difluorophenyl)-1H-1,2,3-triazol-1-yl)methyl)-1a-methyl-8-methylene-2,3,6,7,7a,8,10a,10b-oetahydrooxireno[2′,3′:9,10]cyclodeca[1,2-b]furan-9(1aH)-one] | –
3800 | – | – | C=C1C(=O)O[C@H]2[C@H]1CC/C(Cn1cc(CCCCl)nn1)=C\CC[C@@]1(C)O[C@@H]21 [JVM 4-31] | –
– | 1300 | 1200 | C=C1C(=O)O[C@H]2[C@H]1CC/C(Cn1cc(-c3ccc(F)c(C)c3)nn1)=C\CC[C@@]1(C)O[C@@H]21 [JVM 4-27, (1aR,7aS,10aS,10bS,E)-5-((4-(4-Fluoro-3-methylphenyl)-1H-1,2,3-triazol-1-yl)methyl)-1a-methyl-8-methylene-2,3,6,7,7a,8,10a,10b-octahydrooxireno[2′,3′:9,10]cyclodeca[1,2-b]furan-9(1aH)-one] | EC50 ([2]; Homo sapiens, 24 h): 1200 nM
– | – | 200 | C#Cc1cccc(-c2cn(C/C3=C/CC[C@@]4(C)O[C@H]4[C@H]4OC(=O)C(=C)[C@@H]4CC3)nn2)c1 [JVM 4-41, (1aR,7aS,10aS,10bS,E)-5-((4-(3-Ethynylphenyl)-1H-1,2,3-triazol-1-yl)methyl)-1a-methyl-8-methylene-2,3,6,7,7a,8,10a,10b-octahydrooxireno[2′,3′:9,10]cyclodeca[1,2-b]furan-9(1aH)-one] | EC50 (M9 ENL1 cell line; M9-ENL1, text value in nM, read-out: EC50 against the M9 ENL cell line): 200 nM; fold more potent than parthenolide (PTL) (M9 ENL1 cell line; M9 ENL1 cells): 26 fold
38000 | – | – | C=C1C(=O)O[C@H]2[C@H]1CC/C(Cn1cc(CO)nn1)=C\CC[C@@]1(C)O[C@@H]21 [JVM 3-75] | –
– | 7900 | 3200 | C=C1C(=O)O[C@H]2[C@H]1CC/C(Cn1cc(-c3ccccn3)nn1)=C\CC[C@@]1(C)O[C@@H]21 [JVM 4-47, (1aR,7aS,10aS,10bS,E)-1a-Methyl-8-methylene-5-((4-(pyridin-2-yl)-1H-1,2,3-triazol-1-yl)methyl)-2,3,6,7,7a,8,10a,10b-octahydrooxireno[2′,3′:9,10]cyclodeca[1,2-b]furan-9(1aH)-one] | –
4300 | – | – | C=C1C(=O)O[C@H]2[C@H]1CC/C(Cn1cc(CCCC)nn1)=C\CC[C@@]1(C)O[C@@H]21 [JVM 4-20] | –

From US10428082B2, “Triazole derivatives of melampomagnolide B and methods of use thereof” (BioVentures, LLC, priority 2016, dated 2019)
